Measurements published in ChEMBL document CHEMBL1201861, “Genomics of Drug Sensitity in Cancer screening data, Wellcome Trust Sanger Institute”.
Values joined by “and” are separate entries in the source; they are usually repeats but may differ in a detail not shown here. Equal values may be shown once. Where a SMILES comes first, the peptide text is derived from it. The star is where a group is joined. Cbz = O=C(OCc1ccccc1)*

What was measured:
Experiment in all cases: cells
UACC-812 = assay type: functional, cell-based; conditions: Homo sapiens
Description: SANGER: Inhibition of human UACC-812 cell growth in a cell viability assay.

Raji = assay type: functional, cell-based, Homo sapiens;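 also: cell viability assay measuring inhibition of Raji cell growth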
Description: SANGER: Inhibition of human Raji cell growth in a cell viability assay.

CA46 = assay type: functional, cell-based, Homo sapiens;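 also: growth inhibition of human CA46 cells, read out by a cell viability assay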
Description: SANGER: Inhibition of human CA46 cell growth in a cell viability assay.

EW-22 = assay type: functional, cell-based; conditions: Homo sapiens;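 also: growth inhibition of the EW-22 cell line, measured with a cell viability readout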
Description: SANGER: Inhibition of human EW-22 cell growth in a cell viability assay.

KMOE-2 = assay type: functional, cell-based, Homo sapiens;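 also: growth inhibition of human KMOE-2 cells, read out with a cell viability assay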
Description: SANGER: Inhibition of human KMOE-2 cell growth in a cell viability assay.

BC-3 = assay type: functional, cell-based, Homo sapiens;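 also: cell viability assay measuring growth inhibition of human BC-3 cells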
Description: SANGER: Inhibition of human BC-3 cell growth in a cell viability assay.

EHEB = assay type: functional, cell-based; conditions: Homo sapiens;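 also: growth inhibition of human EHEB cells, read out with a cell viability assay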
Description: SANGER: Inhibition of human EHEB cell growth in a cell viability assay.

NCI-H716 = assay type: functional, cell-based, Homo sapiens;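 also: growth inhibition of human NCI-H716 cells, measured by a cell viability assay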
Description: SANGER: Inhibition of human NCI-H716 cell growth in a cell viability assay.

NCI-H64 = assay type: functional, cell-based, Homo sapiens;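 also: growth inhibition of NCI-H64 cells, read out with a cell viability assay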
Description: SANGER: Inhibition of human NCI-H64 cell growth in a cell viability assay.

NB14 = assay type: functional, cell-based, Homo sapiens;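 also: growth inhibition of NB14 cells measured with a cell viability assay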
Description: SANGER: Inhibition of human NB14 cell growth in a cell viability assay.

GDM-1 = assay type: functional, cell-based, Homo sapiens;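 also: cell viability readout used to measure growth inhibition of human GDM-1 cells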
Description: SANGER: Inhibition of human GDM-1 cell growth in a cell viability assay.

RL95-2 = assay type: functional, cell-based, Homo sapiens;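 also: RL95-2 growth inhibition determined through a cell viability readout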
Description: SANGER: Inhibition of human RL95-2 cell growth in a cell viability assay.

IST-SL2 = assay type: functional, cell-based, Homo sapiens;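 also: growth inhibition of human IST-SL2 cells, read out by a cell viability assay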
Description: SANGER: Inhibition of human IST-SL2 cell growth in a cell viability assay.

D-336MG = assay type: functional, cell-based, Homo sapiens
Description: SANGER: Inhibition of human D-336MG cell growth in a cell viability assay.

T98G = assay type: functional, cell-based; conditions: Homo sapiens;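 also: growth inhibition of T98G cells, read out by a cell viability assay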
Description: SANGER: Inhibition of human T98G cell growth in a cell viability assay.

Detroit 562 = assay type: functional, cell-based; conditions: Homo sapiens;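 also: growth inhibition of human Detroit 562 cells, read out by a cell viability assay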
Description: SANGER: Inhibition of human Detroit562 cell growth in a cell viability assay.

NCI-H1793 = assay type: functional, cell-based; conditions: Homo sapiens;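 also: cell growth inhibition, read out by a cell viability assay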
Description: SANGER: Inhibition of human NCI-H1793 cell growth in a cell viability assay.

CAL-85-1 = assay type: functional, cell-based; conditions: Homo sapiens;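 also: growth inhibition of human CAL-85-1 cells, read out with a cell viability assay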
Description: SANGER: Inhibition of human CAL-85-1 cell growth in a cell viability assay.

A673 = assay type: functional, cell-based; conditions: Homo sapiens;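 also: growth inhibition of human A673 cells, read out through a cell viability assay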
Description: SANGER: Inhibition of human A673 cell growth in a cell viability assay.

D-542MG = assay type: functional, cell-based; conditions: Homo sapiens
Description: SANGER: Inhibition of human D-542MG cell growth in a cell viability assay.

AGS = assay type: functional, cell-based; conditions: Homo sapiens;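 also: growth inhibition of AGS cells, determined with a cell viability assay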
Description: SANGER: Inhibition of human AGS cell growth in a cell viability assay.

RERF-LC-MS = assay type: functional, cell-based; conditions: Homo sapiens;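 also: growth inhibition of human RERF-LC-MS cells, read out by a cell viability assay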
Description: SANGER: Inhibition of human RERF-LC-MS cell growth in a cell viability assay.

Daoy = assay type: functional, cell-based; conditions: Homo sapiens;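 also: daoy cell growth inhibition, read out as cell viability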
Description: SANGER: Inhibition of human Daoy cell growth in a cell viability assay.

SW1417 = assay type: functional, cell-based; conditions: Homo sapiens;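 also: growth inhibition of human SW1417 cells, read out with a cell viability assay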
Description: SANGER: Inhibition of human SW1417 cell growth in a cell viability assay.

SK-MEL-24 = assay type: functional, cell-based; conditions: Homo sapiens;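 also: growth inhibition read out by a cell viability assay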
Description: SANGER: Inhibition of human SK-MEL-24 cell growth in a cell viability assay.

BFTC-905 = assay type: functional, cell-based; conditions: Homo sapiens
Description: SANGER: Inhibition of human BFTC-905 cell growth in a cell viability assay.

MG-63 = assay type: functional, cell-based; conditions: Homo sapiens;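 also: growth inhibition of human MG-63 cells, read out with a cell viability assay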
Description: SANGER: Inhibition of human MG-63 cell growth in a cell viability assay.

CAL-120 = assay type: functional, cell-based; conditions: Homo sapiens;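 also: cell growth inhibition, read out as cell viability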
Description: SANGER: Inhibition of human CAL-120 cell growth in a cell viability assay.

HT-3 = assay type: functional, cell-based; conditions: Homo sapiens;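 also: growth inhibition measured with a cell viability readout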
Description: SANGER: Inhibition of human HT-3 cell growth in a cell viability assay.

DBTRG-05MG = assay type: functional, cell-based; conditions: Homo sapiens;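 also: cell viability assay measuring growth inhibition of human DBTRG-05MG cells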
Description: SANGER: Inhibition of human DBTRG-05MG cell growth in a cell viability assay.

COR-L23 = assay type: functional, cell-based; conditions: Homo sapiens;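 also: cell viability assay measuring how strongly compounds suppress growth of COR-L23 cells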
Description: SANGER: Inhibition of human COR-L23 cell growth in a cell viability assay.

BFTC-909 = assay type: functional, cell-based; conditions: Homo sapiens
Description: SANGER: Inhibition of human BFTC-909 cell growth in a cell viability assay.

SW13 = assay type: functional, cell-based; conditions: Homo sapiens;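 also: IC50 is inhibition of SW13 cell growth, read out with a cell viability assay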
Description: SANGER: Inhibition of human SW13 cell growth in a cell viability assay.

HT-1080 = assay type: functional, cell-based; conditions: Homo sapiens
Description: SANGER: Inhibition of human HT-1080 cell growth in a cell viability assay.

ASPC1 = assay type: functional, cell-based; conditions: Homo sapiens;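 also: growth inhibition of AsPC-1 cells, read out with a cell viability assay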
Description: SANGER: Inhibition of human AsPC-1 cell growth in a cell viability assay.

NCI-H2030 = assay type: functional, cell-based; conditions: Homo sapiens;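 also: growth inhibition of human NCI-H2030 cells, read out by a cell viability assay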
Description: SANGER: Inhibition of human NCI-H2030 cell growth in a cell viability assay.

RPMI-2650 = assay type: functional, cell-based; conditions: Homo sapiens
Description: SANGER: Inhibition of human RPMI-2650 cell growth in a cell viability assay.

PFSK-1 = assay type: functional, cell-based; conditions: Homo sapiens;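 also: cell viability assay measuring how strongly compounds suppress growth of human PFSK-1 cells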
Description: SANGER: Inhibition of human PFSK-1 cell growth in a cell viability assay.

HMV-2 cell line = assay type: functional, cell-based; conditions: Homo sapiens;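 also: growth inhibition of HMV-II cells, read out with a cell viability assay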
Description: SANGER: Inhibition of human HMV-II cell growth in a cell viability assay.

HGC-27 = assay type: functional, cell-based; conditions: Homo sapiens;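 also: growth inhibition of human HGC-27 cells, read out in a cell viability assay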
Description: SANGER: Inhibition of human HGC-27 cell growth in a cell viability assay.

NCI-H1755 = assay type: functional, cell-based; conditions: Homo sapiens;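 also: cell viability readout used to measure growth inhibition of NCI-H1755 cells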
Description: SANGER: Inhibition of human NCI-H1755 cell growth in a cell viability assay.

Calu-3 = assay type: functional, cell-based; conditions: Homo sapiens;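 also: growth inhibition of human Calu-3 cells, determined with a cell viability assay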
Description: SANGER: Inhibition of human Calu-3 cell growth in a cell viability assay.

CAPAN-1 = assay type: functional, cell-based; conditions: Homo sapiens;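 also: growth suppression of CAPAN-1 cells, read out by a cell viability assay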
Description: SANGER: Inhibition of human CAPAN-1 cell growth in a cell viability assay.

SK-LU-1 = assay type: functional, cell-based; conditions: Homo sapiens;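 also: cell viability assay measuring growth inhibition of human SK-LU-1 cells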
Description: SANGER: Inhibition of human SK-LU-1 cell growth in a cell viability assay.

NCI-H1437 = assay type: functional, cell-based; conditions: Homo sapiens;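 also: growth inhibition of human NCI-H1437 cells, read out by a cell viability assay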
Description: SANGER: Inhibition of human NCI-H1437 cell growth in a cell viability assay.

MKN-45 = assay type: functional, cell-based; conditions: Homo sapiens;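 also: growth inhibition of human MKN-45 cells, measured with a cell viability assay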
Description: SANGER: Inhibition of human MKN45 cell growth in a cell viability assay.

MeWo = assay type: functional, cell-based; conditions: Homo sapiens;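 also: growth inhibition of MeWo cells, determined by a cell viability readout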
Description: SANGER: Inhibition of human Mewo cell growth in a cell viability assay.

SW626 = assay type: functional, cell-based; conditions: Homo sapiens;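 also: growth inhibition of SW626 cells, measured with a cell viability assay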
Description: SANGER: Inhibition of human SW626 cell growth in a cell viability assay.

S-117 = assay type: functional, cell-based; conditions: Homo sapiens
Description: SANGER: Inhibition of human S-117 cell growth in a cell viability assay.

HSC-3 = assay type: functional, cell-based; conditions: Homo sapiens
Description: SANGER: Inhibition of human HSC-3 cell growth in a cell viability assay.

NCI-H2347 = assay type: functional, cell-based; conditions: Homo sapiens;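 also: growth inhibition of the cell line, read out with a cell viability assay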
Description: SANGER: Inhibition of human NCI-H2347 cell growth in a cell viability assay.

Ca9-22 = assay type: functional, cell-based; conditions: Homo sapiens;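 also: growth inhibition of Ca9-22 cells, read out with a cell viability assay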
Description: SANGER: Inhibition of human Ca9-22 cell growth in a cell viability assay.

SNU-387 = assay type: functional, cell-based; conditions: Homo sapiens
Description: SANGER: Inhibition of human SNU-387 cell growth in a cell viability assay.

EFM-19 = assay type: functional, cell-based; conditions: Homo sapiens;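 also: growth inhibition of human EFM-19 cells, measured in a cell viability assay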
Description: SANGER: Inhibition of human EFM-19 cell growth in a cell viability assay.

RD = assay type: functional, cell-based; conditions: Homo sapiens
Description: SANGER: Inhibition of human RD cell growth in a cell viability assay.

HN = assay type: functional, cell-based; conditions: Homo sapiens
Description: SANGER: Inhibition of human HN cell growth in a cell viability assay.

NCI-H2009 = assay type: functional, cell-based; conditions: Homo sapiens;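 also: cell viability assay measuring inhibition of NCI-H2009 cell growth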
Description: SANGER: Inhibition of human NCI-H2009 cell growth in a cell viability assay.

HTC-C3 = assay type: functional, cell-based; conditions: Homo sapiens;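 also: inhibition of cell growth, read out with a cell viability assay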
Description: SANGER: Inhibition of human HTC-C3 cell growth in a cell viability assay.

KYSE-180 = assay type: functional, cell-based; conditions: Homo sapiens;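 also: growth inhibition of KYSE-180 cells, read out with a cell viability assay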
Description: SANGER: Inhibition of human KYSE-180 cell growth in a cell viability assay.

RO82-W-1 = assay type: functional, cell-based; conditions: Homo sapiens;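 also: growth inhibition of human RO82-W-1 cells, measured with a cell viability assay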
Description: SANGER: Inhibition of human RO82-W-1 cell growth in a cell viability assay.

NCI-H1703 = assay type: functional, cell-based; conditions: Homo sapiens;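 also: growth inhibition of NCI-H1703 cells, read out via a cell viability assay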
Description: SANGER: Inhibition of human NCI-H1703 cell growth in a cell viability assay.

NCI-H2228 = assay type: functional, cell-based; conditions: Homo sapiens;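 also: growth inhibition of human NCI-H2228 cells, read out by a cell viability assay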
Description: SANGER: Inhibition of human NCI-H2228 cell growth in a cell viability assay.

[1] = Homo sapiens, GDM-1, read-out: IC50

Work on C[C@@H](Oc1cc(-c2cnn(C3CCNCC3)c2)cnc1N)c1c(Cl)ccc(F)c1Cl [CRIZOTINIB] yielded an IC50 (UACC-812) of over 2 µM, an IC50 (Raji; Homo sapiens, Raji) of over 2 µM and an IC50 (CA46; Homo sapiens, CA46) of over 2 µM. It also gave an IC50 (EW-22) of over 2 µM, an IC50 (KMOE-2; Homo sapiens, KMOE-2) of over 2 µM and an IC50 (BC-3; Homo sapiens, BC-3) of over 2 µM. The IC50 (EHEB) was over 2 µM, the IC50 (NCI-H716; Homo sapiens, NCI-H716) was over 2 µM and the IC50 (NCI-H64; Homo sapiens, NCI-H64) was over 2 µM. The IC50 (NB14; Homo sapiens, NB14) was over 2 µM, the IC50 (GDM-1; [1]) was over 2 µM and the IC50 (RL95-2; Homo sapiens, RL95-2) was over 2 µM. It also gave an IC50 (IST-SL2; Homo sapiens, IST-SL2) of over 2 µM and an IC50 (D-336MG; Homo sapiens, D-336MG) of over 2 µM.
Work on Cc1ccc(-n2nc(C(C)(C)C)cc2NC(=O)Nc2ccc(OCCN3CCOCC3)c3ccccc23)cc1 [DORAMAPIMOD] yielded an IC50 (T98G) of over 10 µM, an IC50 (Detroit 562) of over 10 µM and an IC50 (NCI-H1793) of over 10 µM. The IC50 (CAL-85-1) was over 10 µM, the IC50 (A673) was over 10 µM and the IC50 (D-542MG) was over 10 µM. For the same compound, the IC50 (AGS) was over 10 µM, the IC50 (RERF-LC-MS) was over 10 µM and the IC50 (Daoy) was over 10 µM. For the same compound, the IC50 (SW1417) was over 10 µM, the IC50 (SK-MEL-24) was over 10 µM and the IC50 (BFTC-905) was over 10 µM. It also gave an IC50 (MG-63) of over 10 µM, an IC50 (EW-22) of over 10 µM and an IC50 (CAL-120) of over 10 µM. It also gave an IC50 (HT-3) of over 10 µM, an IC50 (DBTRG-05MG) of over 10 µM and an IC50 (COR-L23) of over 10 µM. The IC50 (BFTC-909) was over 10 µM, the IC50 (SW13) was over 10 µM and the IC50 (HT-1080) was over 10 µM. For the same compound, the IC50 (ASPC1) was over 10 µM, the IC50 (NCI-H2030) was over 10 µM and the IC50 (RPMI-2650) was over 10 µM. For the same compound, the IC50 (PFSK-1) was over 10 µM, the IC50 (HMV-2 cell line) was over 10 µM and the IC50 (HGC-27) was over 10 µM. It also gave an IC50 (NCI-H1755) of over 10 µM, an IC50 (Calu-3) of over 10 µM and an IC50 (CAPAN-1) of over 10 µM. It also gave an IC50 (SK-LU-1) of over 10 µM, an IC50 (NCI-H1437) of over 10 µM and an IC50 (MKN-45) of over 10 µM. The IC50 (MeWo) was over 10 µM, the IC50 (SW626) was over 10 µM and the IC50 (NB14; Homo sapiens, NB14) was over 10 µM. For the same compound, the IC50 (S-117) was over 10 µM, the IC50 (HSC-3) was over 10 µM and the IC50 (NCI-H2347) was over 10 µM. For the same compound, the IC50 (Ca9-22) was over 10 µM, the IC50 (SNU-387) was over 10 µM and the IC50 (EFM-19) was over 10 µM. For the same compound, the IC50 (RD) was over 10 µM, the IC50 (HN) was over 10 µM and the IC50 (NCI-H2009) was over 10 µM. For the same compound, the IC50 (HTC-C3) was over 10 µM, the IC50 (KYSE-180) was over 10 µM and the IC50 (RO82-W-1) was over 10 µM. The IC50 (NCI-H1703) was over 10 µM, the IC50 (D-336MG; Homo sapiens, D-336MG) was over 10 µM and the IC50 (NCI-H2228) was over 10 µM.
Nc1ccccc1NC(=O)c1ccc(CNC(=O)OCc2cccnc2)cc1 [ENTINOSTAT] gave an IC50 (UACC-812) of over 5 µM, an IC50 (Raji; Homo sapiens, Raji) of over 5 µM and an IC50 (D-542MG) of 1.89 µM. It also gave an IC50 (CA46; Homo sapiens, CA46) of over 5 µM, an IC50 (EW-22) of over 5 µM and an IC50 (KMOE-2; Homo sapiens, KMOE-2) of 2.88 µM. For the same compound, the IC50 (BC-3; Homo sapiens, BC-3) was 0.783 µM, the IC50 (EHEB) was 0.926 µM and the IC50 (NCI-H716; Homo sapiens, NCI-H716) was over 5 µM. For the same compound, the IC50 (NCI-H64; Homo sapiens, NCI-H64) was 1.28 µM, the IC50 (NB14; Homo sapiens, NB14) was 0.726 µM and the IC50 (GDM-1; [1]) was 0.887 µM. The IC50 (RL95-2; Homo sapiens, RL95-2) was 2.11 µM, the IC50 (IST-SL2; Homo sapiens, IST-SL2) was 2 µM and the IC50 (D-336MG; Homo sapiens, D-336MG) was over 5 µM.
Work on Cc1ccc(NC(=O)c2ccc(CN3CCN(C)CC3)cc2)cc1Nc1nccc(-c2cccnc2)n1 [IMATINIB] yielded an IC50 (UACC-812) of over 2 µM, an IC50 (Raji; Homo sapiens, Raji) of over 2 µM and an IC50 (CA46; Homo sapiens, CA46) of over 2 µM. It also gave an IC50 (EW-22) of over 2 µM, an IC50 (KMOE-2; Homo sapiens, KMOE-2) of over 2 µM and an IC50 (BC-3; Homo sapiens, BC-3) of over 2 µM. For the same compound, the IC50 (EHEB) was over 2 µM, the IC50 (NCI-H716; Homo sapiens, NCI-H716) was over 2 µM and the IC50 (NCI-H64; Homo sapiens, NCI-H64) was over 2 µM. The IC50 (NB14; Homo sapiens, NB14) was over 2 µM, the IC50 (GDM-1; Homo sapiens, GDM-1) was over 2 µM and the IC50 (RL95-2; Homo sapiens, RL95-2) was over 2 µM. For the same compound, the IC50 (IST-SL2; Homo sapiens, IST-SL2) was over 2 µM and the IC50 (D-336MG; Homo sapiens, D-336MG) was over 2 µM.
With CC(C)C[C@@H](C=O)NC(=O)[C@H](CC(C)C)NC(=O)[C@H](CC(C)C)NC(=O)OCc1ccccc1 [MG-132] (Cbz-Leu-Leu-Leu-aldehyde) the IC50 (UACC-812) was over 1 µM, the IC50 (Raji; Homo sapiens, Raji) was over 1 µM and the IC50 (Raji; raji) was over 1 µM. For the same compound, the IC50 (D-542MG) was 0.0596 µM, the IC50 (CA46; Homo sapiens, CA46) was over 1 µM and the IC50 (CA46; ca46) was over 1 µM. It also gave an IC50 (EW-22) of over 1 µM, an IC50 (KMOE-2; Homo sapiens, KMOE-2) of over 1 µM and an IC50 (KMOE-2; kmoe-2) of over 1 µM. For the same compound, the IC50 (BC-3; Homo sapiens, BC-3) was over 1 µM, the IC50 (BC-3; bc-3) was over 1 µM and the IC50 (EHEB) was over 1 µM. For the same compound, the IC50 (NCI-H716; nci-h716) was over 1 µM, the IC50 (NCI-H64; nci-h64) was over 1 µM and the IC50 (NB14; nb14) was over 1 µM. For the same compound, the IC50 (GDM-1; gdm-1, read-out: IC50) was 0.351 µM and > 1 µM, the IC50 (RL95-2; rl95-2) was over 1 µM and the IC50 (IST-SL2; ist-sl2) was over 1 µM. For the same compound, the IC50 (D-336MG; d-336mg) was over 1 µM.
With COc1cc(N2CCC(N3CCN(C)CC3)CC2)ccc1Nc1ncc(Cl)c(Nc2ccccc2S(=O)(=O)C(C)C)n1 [TAE-684] the IC50 (UACC-812) was over 2 µM, the IC50 (Raji; Homo sapiens, Raji) was over 2 µM and the IC50 (CA46; Homo sapiens, CA46) was over 2 µM. The IC50 (EW-22) was over 2 µM, the IC50 (KMOE-2; Homo sapiens, KMOE-2) was over 2 µM and the IC50 (BC-3; Homo sapiens, BC-3) was over 2 µM. It also gave an IC50 (EHEB) of over 2 µM, an IC50 (NCI-H716; Homo sapiens, NCI-H716) of 1.07 µM and an IC50 (NCI-H64; Homo sapiens, NCI-H64) of over 2 µM. The IC50 (NB14; Homo sapiens, NB14) was 0.438 µM, the IC50 (GDM-1; [1]) was 0.471 µM and the IC50 (RL95-2; Homo sapiens, RL95-2) was 0.501 µM. It also gave an IC50 (IST-SL2; Homo sapiens, IST-SL2) of over 2 µM and an IC50 (D-336MG; Homo sapiens, D-336MG) of 0.662 µM.
